Results taken from patent US20100189701A1, “METHODS AND COMPOSITIONS TO TREAT ARRHYTHMIAS” (priority 2007, published 2010).

How the values were obtained:
[1] = tested on: neonatal rat ventricular myocyte cultures; experiment: Conduction velocity in neonatal rat ventricular myocyte cultures on multi-electrode array; assay type: cell-based
[2] = tested on: monomorphic ventricular tachycardia; conditions: one week after gene transfer; cited from earlier work
[3] = tested on: epicardial border zone; experiment: Canine infarct epicardial border zone, electrograms and microelectrode study; assay type: in vivo, dog; conditions: dog, in vivo

p-conotoxin GIIIA [μ-CTX GIIIA]
effect on CV [1]: CV is reduced in SkM1 cultures to the level recorded in GFP cultures

Cx43: connexin
animals showing no inducible monomorphic VT [2]: 4 of 5

NC1=N[C@H](O)[C@H]2[C@H]3O[C@]4(O)O[C@@H]([C@@H](O)[C@@]2(N1)[C@@H]4O)[C@]3(O)CO [TTX, tetrodotoxin]
conduction velocity decrease [1]: 20%
Vmax and membrane responsiveness response [3]: significant response to TTX

B1: HERG-G628S: dominant negative HERG mutant (protein, UniProt Q12809 1-1159, looked up, variant G628S)
Voltage-gated inwardly …: MPVRRGHVAPQNTFLDTIIRKFEGQSRKFIIANARVENCAVIYCNDGFCELCGYSRAEVMQRPCTCDFLHGPRTQRRAAAQIAQALLGAEERKVEIAFYRKDGSCFLCLVDVVPVKNEDGAVIMFILNFEVVMEKDMVGSPAHDTNHRGPPTSWLAPGRAKTFRLKLPALLALTARESSVRSGGAGGAGAPGAVVVDVDLTPAAPSSESLALDEVTAMDNHVAGLGPAEERRALVGPGSPPRSAPGQLPSPRAHSLNPDASGSSCSLARTRSRESCASVRRASSADDIEAMRAGVLPPPPRHASTGAMHPLRSGLLNSTSDSDLVRYRTISKIPQITLNFVDLKGDPFLASPTSDREIIAPKIKERTHNVTEKVTQVLSLGADVLPEYKLQAPRIHRWTILHYSPFKAVWDWLILLLVIYTAVFTPYSAAFLLKETEEGPPATECGYACQPLAVVDLIVDIMFIVDILINFRTTYVNANEEVVSHPGRIAVHYFKGWFLIDMVAAIPFDLLIFGSGSEELIGLLKTARLLRLVRVARKLDRYSEYGAAVLFLLMCTFALIAHWLACIWYAIGNMEQPHMDSRIGWLHNLGDQIGKPYNSSGLGGPSIKDKYVTALYFTFSSLTSVGFSNVSPNTNSEKIFSICVMLIGSLMYASIFGNVSAIIQRLYSGTARYHTQMLRVREFIRFHQIPNPLRQRLEEYFQHAWSYTNGIDMNAVLKGFPECLQADICLHLNRSLLQHCKPFRGATKGCLRALAMKFKTTHAPPGDTLVHAGDLLTALYFISRGSIEILRGDVVVAILGKNDIFGEPLNLYARPGKSNGDVRALTYCDLHKIHRDDLLEVLDMYPEFSDHFWSSLEITFNLRDTNMIPGSPGSTELEGGFSRQRKRKLSFRRRTDKDTEQPGEVSALGPGRAGAGPSSRGRPGGPWGESPSSGPSSPESSEDEGPGRSSSPLRLVPFSSPRPPGEPPGGEPLMEDCEKSSDTCNPLSGAFSGVSNIFSFWGDSRGRQYQELPRCPAPTPSLLNIPLSSPGRRPRGDVESRLDALQRQLNRLETRLSADMATVLQLLQRQMTLVPPAYSAVTTPGPGPTSTSPLLPVSPLPTLTLDSLSQVSQFMACEELPPGAPELPQEGPTRRLSLPGQLGALTSQPLHRHGSDPGS
animals showing no inducible monomorphic VT [2]: 5 of 5
